Experimental data from patent publication US20090018134A1, “Compounds - 945” (AstraZeneca AB, priority 2007, published 2009).

The compounds below were run against T1, mTOR (Homo sapiens, UniProt P42345) (assay: In Vitro mTOR Kinase Assay (Echo), Test (a)(ii)). Details: table of enzyme assay Test (a)(ii); read-out: Test (a)(ii) IC50.
T1 construct: FLAG; made in house
Assay type: biochemical
Method in brief: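 Enzyme: HEK293-expressed, FLAG-purified mTOR C-terminal fragment (aa 1362-2549). Rxn 2 h RT with biotinylated peptide, stopped with EDTA 50 mM/BSA/Tris pH 7.4. Detection: T389 phospho-antibody AlphaScreen, 680 nm excitation. IC50.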

T1 sequence (P42345 1362-2549): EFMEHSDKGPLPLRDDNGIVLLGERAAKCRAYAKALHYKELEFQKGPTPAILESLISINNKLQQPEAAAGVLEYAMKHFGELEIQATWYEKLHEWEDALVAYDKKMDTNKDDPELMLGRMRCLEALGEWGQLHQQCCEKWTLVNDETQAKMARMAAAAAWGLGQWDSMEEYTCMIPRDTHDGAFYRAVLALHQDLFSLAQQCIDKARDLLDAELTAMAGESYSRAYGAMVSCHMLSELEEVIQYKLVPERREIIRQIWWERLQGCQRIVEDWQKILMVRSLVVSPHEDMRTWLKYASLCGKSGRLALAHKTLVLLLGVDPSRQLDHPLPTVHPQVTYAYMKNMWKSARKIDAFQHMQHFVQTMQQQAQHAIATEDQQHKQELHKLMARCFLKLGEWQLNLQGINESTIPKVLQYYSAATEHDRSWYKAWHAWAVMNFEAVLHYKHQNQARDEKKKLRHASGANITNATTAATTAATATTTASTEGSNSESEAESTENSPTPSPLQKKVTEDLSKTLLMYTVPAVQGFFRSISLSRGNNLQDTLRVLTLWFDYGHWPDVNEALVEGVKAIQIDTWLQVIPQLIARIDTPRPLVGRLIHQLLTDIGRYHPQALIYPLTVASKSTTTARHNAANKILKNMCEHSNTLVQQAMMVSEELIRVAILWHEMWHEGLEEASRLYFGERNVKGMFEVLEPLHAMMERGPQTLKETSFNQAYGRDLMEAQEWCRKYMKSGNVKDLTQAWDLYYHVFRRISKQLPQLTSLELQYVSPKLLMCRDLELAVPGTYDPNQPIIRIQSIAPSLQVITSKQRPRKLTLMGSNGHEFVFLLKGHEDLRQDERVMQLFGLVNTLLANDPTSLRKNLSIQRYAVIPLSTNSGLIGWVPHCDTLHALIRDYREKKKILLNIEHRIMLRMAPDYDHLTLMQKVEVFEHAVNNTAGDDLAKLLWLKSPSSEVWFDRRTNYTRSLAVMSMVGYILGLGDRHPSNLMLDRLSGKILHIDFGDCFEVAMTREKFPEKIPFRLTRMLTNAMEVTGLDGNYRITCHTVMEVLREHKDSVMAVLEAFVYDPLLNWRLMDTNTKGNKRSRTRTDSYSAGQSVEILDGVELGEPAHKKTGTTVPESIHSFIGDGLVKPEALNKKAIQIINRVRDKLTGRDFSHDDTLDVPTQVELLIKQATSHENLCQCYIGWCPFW

| IC50 [nM] | Compound |
| --- | --- |
| 21.1 | O=C(NCCCO)Nc1ccc(-c2nc(N3CCOCC3)cc(C3(S(=O)(=O)c4ccncc4)CC3)n2)cc1 [Example 36ax, 3-(3-hydroxypropyl)-1-[4-[4-morpholin-4-yl-6-(1-pyridin-4-ylsulfonylcyclopropyl)pyrimidin-2-yl]phenyl]urea] |
| 1.17 | C[C@H]1COCCN1c1cc(C2(S(C)(=O)=O)CC2)nc(-c2ccc(NC(=O)Nc3nccs3)cc2)n1 [Example 36ay, 1-[4-[4-[(3S)-3-methylmorpholin-4-yl]-6-(1-methylsulfonylcyclopropyl)pyri-midin-2-yl]phenyl]-3-(1,3-thiazol-2-yl)urea] |
| 1.79 | C[C@H]1COCCN1c1cc(C2(S(=O)(=O)CCCO)CC2)nc(-c2ccc(NC(=O)Nc3ncns3)cc2)n1 [Example 36b, 1-[4-[4-[1-(3-hydroxypropylsulfonyl)cyclopro-pyl]-6-[(3S)-3-methylmorpholin-4-yl]pyrimidin-2-yl]phenyl]-3-(1,2,4-thiadiazol-5-yl)urea] |
| 2.58 | C[C@H]1COCCN1c1cc(C2(S(=O)(=O)c3ccccc3)CC2)nc(-c2ccc(NC(=O)NC3CCC3)cc2)n1 [Example 36bd, 1-[4-[4-[1-(benzenesulfonyl)cyclopropyl]-6-[(3S)-3-methylmorpholin-4-yl]pyrimidin-2-yl]phenyl]-3-cyclobutylurea] |
| 3.76 | C[C@H]1COCCN1c1cc(C2(S(=O)(=O)c3ccccc3)CC2)nc(-c2ccc(NC(=O)NCC(O)C(F)(F)F)cc2)n1 (stereo partly drawn) [Example 36be, 1-[4-[4-[1-(benzenesulfonyl)cyclopropyl]-6-[(3S)-3-methylmorpholin-4-yl]pyrimidin-2-yl]phenyl]-3-(3,3,3-trifluoro-2-hydroxypropyl)urea] |
| 4.57 | CC(C)NC(=O)Nc1ccc(-c2nc(N3CCOC[C@@H]3C)cc(C3(S(=O)(=O)c4ccccc4)CC3)n2)cc1 [Example 36bf, 1-[4-[4-[1-(benzenesulfonyl)cyclopropyl]-6-[(3S)-3-methylmorpholin-4-yl]pyrimidin-2-yl]phenyl]-3-propan-2-ylurea] |
| 2.31 | CCCNC(=O)Nc1ccc(-c2nc(N3CCOC[C@@H]3C)cc(C3(S(=O)(=O)c4ccccc4)CC3)n2)cc1 [Example 36bi, 3-[4-[4-[1-(benzenesulfonyl)cyclopropyl]-6-[(3S)-3-methylmorpholin-4-yl]pyrimidin-2-yl]phenyl]-1-propylurea] |
| 4.33 | C[C@H]1COCCN1c1cc(C2(S(=O)(=O)c3ccccc3)CC2)nc(-c2ccc(NC(=O)NC(C)(C)CO)cc2)n1 [Example 36bk, 1-[4-[4-[1-(benzenesulfonyl)cyclopropyl]-6-[(3S)-3-methylmorpholin-4-yl]pyrimidin-2-yl]phenyl]-3-(1-hydroxy-2-methylpropan-2-yl)urea] |
| 1.93 | C[C@H]1COCCN1c1cc(C2(S(=O)(=O)c3ccccc3)CC2)nc(-c2ccc(NC(=O)NCCC#N)cc2)n1 [Example 36bm, 1-[4-[4-[1-(benzenesulfonyl)cyclopropyl]-6-[(3S)-3-methylmorpholin-4-yl]pyrimidin-2-yl]phenyl]-3-(2-cyanoethyl)urea] |
| 6.37 | C[C@H]1COCCN1c1cc(C2(S(=O)(=O)c3ccccc3)CC2)nc(-c2ccc(NC(=O)NCc3ncc[nH]3)cc2)n1 [Example 36bn, 1-[4-[4-[1-(benzenesulfonyl)cyclopropyl]-6-[(3S)-3-methylmorpholin-4-yl]pyrimidin-2-yl]phenyl]-3-(1H-imidazol-2-ylmethyl)urea] |
| 17.6 | C[C@H]1COCCN1c1cc(C2(S(=O)(=O)c3ccccc3)CC2)nc(-c2ccc(NC(=O)NC3(CO)CC3)cc2)n1 [Example 36bo, 1-[4-[4-[1-(benzenesulfonyl)cyclopropyl]-6-[(3S)-3-methylmorpholin-4-yl]pyrimidin-2-yl]phenyl]-3-[1-(hydroxymethyl)cyclopropyl]urea] |
| 1.98 | C[C@H]1COCCN1c1cc(C2(S(=O)(=O)c3ccccc3)CC2)nc(-c2ccc(NC(=O)NC3COC3)cc2)n1 [Example 36bp, 1-[4-[4-[1-(benzenesulfonyl)cyclopropyl]-6-[(3S)-3-methylmorpholin-4-yl]pyrimidin-2-yl]phenyl]-3-(oxetan-3-yl)urea] |
| 1.31 | C[C@H]1COCCN1c1cc(C2(S(=O)(=O)c3ccccc3)CC2)nc(-c2ccc(NC(=O)Nc3ncns3)cc2)n1 [Example 36bq, 1-[4-[4-[1-(benzenesulfonyl)cyclopropyl]-6-[(3S)-3-methylmorpholin-4-yl]pyrimidin-2-yl]phenyl]-3-(1,2,4-thiadiazol-5-yl)urea] |
| 1.88 | C[C@H]1COCCN1c1cc(C2(S(=O)(=O)c3ccccc3)CC2)nc(-c2ccc(NC(=O)Nc3cnn(C)c3)cc2)n1 [Example 36br, 1-[4-[4-[1-(benzenesulfonyl)cyclopropyl]-6-[(3S)-3-methylmorpholin-4-yl]pyrimidin-2-yl]phenyl]-3-(1-methylpyrazol-4-yl)urea] |
| 1.18 | CNC(=O)Nc1ccc(-c2nc(N3CCOC[C@@H]3C)cc(C3(S(=O)(=O)c4ccccc4)CCC3)n2)cc1 [Example 36bu, 1-[4-[4-[1-(benzenesulfonyl)cyclobutyl]-6-[(3S)-3-methylmorpholin-4-yl]pyrimidin-2-yl]phenyl]-3-methylurea] |
| 2.64 | C[C@H]1COCCN1c1cc(C2(S(=O)(=O)c3ccccc3)CCC2)nc(-c2ccc(NC(=O)Nc3cnn(C)c3)cc2)n1 [Example 36bv, 1-[4-[4-[1-(benzenesulfonyl)cyclobutyl]-6-[(3S)-3-methylmorpholin-4-yl]pyrimidin-2-yl]phenyl]-3-(1-methylpyrazol-4-yl)urea] |
| 9.09 | C[C@H]1COCCN1c1cc(C2(S(=O)(=O)c3ccccc3)CCCC2)nc(-c2ccc(NC(=O)NC3CC3)cc2)n1 [Example 36bw, 1-[4-[4-[1-(benzenesulfonyl)cyclopentyl]-6-[(3S)-3-methylmorpholin-4-yl]pyrimidin-2-yl]phenyl]-3-cyclopropylurea] |
| 2.69 | C[C@H]1COCCN1c1cc(C2(S(=O)(=O)c3ccccc3)CCCC2)nc(-c2ccc(NC(=O)NCCO)cc2)n1 [Example 36bx, 1-[4-[4-[1-(benzenesulfonyl)cyclopentyl]-6-[(3S)-3-methylmorpholin-4-yl]pyrimidin-2-yl]phenyl]-3-(2-hydroxyethyl)urea] |
| 12 | C[C@H]1COCCN1c1cc(C2(S(=O)(=O)c3ccccc3)CCCC2)nc(-c2ccc(NC(=O)NCCCO)cc2)n1 [Example 36by, 1-[4-[4-[1-(benzenesulfonyl)cyclopentyl]-6-[(3S)-3-methylmorpholin-4-yl]pyrimidin-2-yl]phenyl]-3-(3-hydroxypropyl)urea] |
| 14.3 | C[C@H]1COCCN1c1cc(C2(S(=O)(=O)c3ccccc3)CCCC2)nc(-c2ccc(NC(=O)NCCC#N)cc2)n1 [Example 36bz, 1-[4-[4-[1-(benzenesulfonyl)cyclopentyl]-6-[(3S)-3-methylmorpholin-4-yl]pyrimidin-2-yl]phenyl]-3-(2-cyanoethyl)urea] |
| 114 | C[C@H]1COCCN1c1cc(C2(S(=O)(=O)CCCO)CC2)nc(-c2ccc(NC(=O)NCc3ncc[nH]3)cc2)n1 [Example 36c, 1-[4-[4-[1-(3-hydroxypropylsulfonyl)cyclopro-pyl]-6-[(3S)-3-methylmorpholin-4-yl]pyrimidin-2-yl]phenyl]-3-(1H-imidazol-2-ylmethyl)urea] |
| 310 | CNC(=O)Nc1ccc(-c2nc(N3CCOC[C@@H]3C)cc(C3(S(=O)(=O)CCCO)CCOCC3)n2)cc1 [Example 36ca, 1-[4-[4-[4-(3-hydroxypropylsulfonyl)oxan-4-yl]-6-[(3S)-3-methylmorpholin-4-yl]pyrimidin-2-yl]phenyl]-3-methylurea] |
| 163 | CCNC(=O)Nc1ccc(-c2nc(N3CCOC[C@@H]3C)cc(C3(S(=O)(=O)CCCO)CCOCC3)n2)cc1 [Example 36cb, 1-ethyl-3-[4-[4-[4-(3-hydroxypropylsulfonyl)oxan-4-yl]-6-[(3S)-3-methylmorpholin-4-yl]pyrimidin-2-yl]phenyl]urea] |
| 129 | C[C@H]1COCCN1c1cc(C2(S(=O)(=O)CCCO)CCOCC2)nc(-c2ccc(NC(=O)NC3CC3)cc2)n1 [Example 36cc, 3-cyclopropyl-1-[4-[4-[4-(3-hydroxypropylsulfonyl)oxan-4-yl]-6-[(3S)-3-methylmorpholin-4-yl]pyrimidin-2-yl]phenyl]urea] |
| 147 | C[C@H]1COCCN1c1cc(C2(S(=O)(=O)CCCO)CCOCC2)nc(-c2ccc(NC(=O)NC3CCC3)cc2)n1 [Example 36cd, 3-cyclobutyl-1-[4-[4-[4-(3-hydroxypropylsulfonyl)oxan-4-yl]-6-[(3S)-3-methylmorpholin-4-yl]pyrimidin-2-yl]phenyl]urea] |
| 420 | C[C@H]1COCCN1c1cc(C2(S(=O)(=O)CCCO)CCOCC2)nc(-c2ccc(NC(=O)NCCC#N)cc2)n1 [Example 36ce, 3-(2-cyanoethyl)-1-[4-[4-[4-(3-hydroxypropylsulfonyl)oxan-4-yl]-6-[(3S)-3-methylmorpholin-4-yl]pyrimidin-2-yl]phenyl]urea] |
| 286 | CCCNC(=O)Nc1ccc(-c2nc(N3CCOC[C@@H]3C)cc(C3(S(=O)(=O)CCCO)CCOCC3)n2)cc1 [Example 36cf, 3-[4-[4-[4-(3-hydroxypropylsulfonyl)oxan-4-yl]-6-[(3S)-3-methylmorpholin-4-yl]pyrimidin-2-yl]phenyl]-1-propylurea] |
| 136 | C[C@H]1COCCN1c1cc(C2(S(=O)(=O)CCCO)CCOCC2)nc(-c2ccc(NC(=O)NCCO)cc2)n1 [Example 36cg, 3-(2-hydroxyethyl)-1-[4-[4-[4-(3-hydroxypropylsulfonyl)oxan-4-yl]-6-[(3S)-3-methylmorpholin-4-yl]pyrimidin-2-yl]phenyl]urea] |
| 208 | C[C@H]1COCCN1c1cc(C2(S(=O)(=O)CCCO)CCOCC2)nc(-c2ccc(NC(=O)Nc3cnn(C)c3)cc2)n1 [Example 36ch, 1-[4-[4-[4-(3-hydroxypropylsulfonyl)oxan-4-yl]-6-[(3S)-3-methylmorpholin-4-yl]pyrimidin-2-yl]phenyl]-3-(1-methylpyrazol-4-yl)urea] |
